Source: article PMC5520492, “Inhibition of DNA2 nuclease as a therapeutic strategy targeting replication stress in cancer cells” (Oncogenesis, 2017)

Columns and labels:
[1] = target: T1, hDNA2, Bloom syndrome and RPA (Homo sapiens, UniProt P51530); assay: Reconstituted 5' DNA end resection assay (2-kb dsDNA degradation); format: biochemical; settings: hDNA2 5 nM, Bloom syndrome 5 nM, RPA 100 nM
T1 construct: made in house
T1 sequence (P51530 1-1060): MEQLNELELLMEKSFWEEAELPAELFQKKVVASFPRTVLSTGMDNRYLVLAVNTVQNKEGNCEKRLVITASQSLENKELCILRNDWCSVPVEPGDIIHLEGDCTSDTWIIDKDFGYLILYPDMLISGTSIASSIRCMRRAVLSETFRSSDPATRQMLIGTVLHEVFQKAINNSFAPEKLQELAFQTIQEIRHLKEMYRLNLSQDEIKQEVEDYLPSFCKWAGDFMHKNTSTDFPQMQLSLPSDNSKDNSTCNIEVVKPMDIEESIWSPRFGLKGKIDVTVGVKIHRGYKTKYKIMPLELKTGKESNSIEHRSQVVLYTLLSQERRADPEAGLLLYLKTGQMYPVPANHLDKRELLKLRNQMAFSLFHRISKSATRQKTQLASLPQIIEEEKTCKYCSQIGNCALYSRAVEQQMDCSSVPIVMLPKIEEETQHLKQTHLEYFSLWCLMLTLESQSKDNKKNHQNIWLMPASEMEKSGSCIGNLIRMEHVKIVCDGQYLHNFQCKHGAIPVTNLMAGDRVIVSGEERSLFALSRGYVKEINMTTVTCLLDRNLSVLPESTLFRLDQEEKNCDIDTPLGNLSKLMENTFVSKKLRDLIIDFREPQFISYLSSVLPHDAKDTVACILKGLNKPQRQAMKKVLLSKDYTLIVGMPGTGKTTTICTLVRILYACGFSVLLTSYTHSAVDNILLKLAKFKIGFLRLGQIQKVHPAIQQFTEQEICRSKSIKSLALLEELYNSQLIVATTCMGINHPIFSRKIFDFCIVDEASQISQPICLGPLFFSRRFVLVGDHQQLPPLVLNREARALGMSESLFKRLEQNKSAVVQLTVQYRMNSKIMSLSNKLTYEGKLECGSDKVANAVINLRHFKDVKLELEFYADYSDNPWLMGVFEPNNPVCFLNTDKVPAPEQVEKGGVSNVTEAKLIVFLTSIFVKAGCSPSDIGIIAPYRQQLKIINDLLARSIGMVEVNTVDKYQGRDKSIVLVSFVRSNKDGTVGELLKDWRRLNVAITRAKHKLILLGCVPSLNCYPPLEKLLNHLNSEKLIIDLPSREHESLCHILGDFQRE
Method: Figure 3 Validation of the top two inhibitors identified from the high-throughput screen. […] (b, c) Dose-response curves for indicated compounds, cell based (U2OS cell line) (b) and in vitro (c). The IC50 value and the protein concentration used are indicated. Triple labeled substrate (0.1 μM) as in Figure 2a was used. The concentration range of inhibitors was 0.003–666.67 μM. […] The asterisks denote the radiolabel. Plotted are the average data from three independent experiments and the error bars represent 1 s.d.
Nuclease assays were performed in buffer R (20 mM Na-HEPES pH 7.5, 1 mM ATP, 0.1 mM DTT, 100 μg/ml bovine serum albumin, 0.05% Triton X-100, 2 mM MgCl2, 100 mM KCl) and contained 0.5 nM ends (2-kb substrate) or 5 nM ends (the ssDNA oligonucleotide PSOL6929) of DNA. Reactions containing Bloom syndrome also included an ATP regenerating system consisting of 10 mM creatine phosphate and 50 μg/ml creatine kinase. […] Gels were dried onto DEAE paper on top of Whatman filter paper (GE, Issaquah, WA, USA) and then analyzed in a BioRad Personal Molecular Imager FX phosphorimager. Band intensity was quantified using Image Lab software (Bio-Rad, Hercules, CA, USA). The fraction of DNA substrate digested was determined by measuring the amount of substrate remaining and normalizing to the total substrate in the negative control lane containing no protein.

[2] = test system: U2OS cells; assay: Cell-based viability/proliferation screen, DAPI staining and automated microscopy; set-up: species or system human; settings: for IC50: Homo sapiens, 10 pM to 10 μM, DAPI staining, read-out: IC50 from Screening Cell Based
Method: The biological effectiveness of the 39 compounds selected by re-screening was determined by measuring their half maximal inhibitory concentration (IC50) biochemically and in a cell-based system using the 384-well platform (Supplementary Table S2). […] We conducted the viability assay in duplicate on three separate occasions using a concentration range of 10 pM to 10 μM for each compound. Cell proliferation was determined using 4,6-diamidino-2-phenylindole staining and microscopy.
In addition, a second dark quencher ZEN (N,N-diethyl-4-(4-nitronaphthalen-1-ylazo)-phenylamine, absorption max.=532 nm) is placed between 9th and 10th base (Figure 2a). Initial screen, it was performed with yDna2.[22] Then, the top candidate compounds were tested on hDNA2. Identical reaction conditions were used for assaying the nuclease activity of yDna2 and hDNA2. […] The reaction buffer was 20 mM HEPES/NaOH, pH 7.5, 60 mM KCl, 1 mM DTT, 100 μg/ml bovine serum albumin and 0.05% Triton X-100. The nuclease assay was initiated by adding MgCl2 (3 mM final concentration). T5 nuclease was assayed in the buffer (50 mM potassium acetate, pH 7.9, 20 mM Tris-acetate, 10 mM magnesium acetate and 1 mM DTT) provided by the vendor (NEB, Ipswich, MA, USA). The concentration of the fluorogenic substrate was 0.1 μM. The optimal amount of yDna2, hDNA2 and T5 nuclease was determined by utilizing the Kaleidagraph software (Reading, PA, USA) to fit the data according to Michaelis Menton Kinetics (V=V0+Vmax*x/(Km+x)). […] All the compounds were dissolved in DMSO and DMSO alone was used as control; the final concentration of DMSO was at 3.33% for protein-based assay and 0.1% for cell-based assay. The Z’ value was calculated as previously described.[50] Cell proliferation was determined using 4,6-diamidino-2-phenylindole staining followed by high-throughput microscopy in a 384-well plate setup. In brief, cells were fixed with formaldehyde, washed and stained with 4,6-diamidino-2-phenylindole and the number of nuclei in each well counted by automated microscopy. The data were analyzed as described.[51]

SMILES	Resection in the reconstituted system [1]	IC50 [2] [nM]	Effect of longer exposure on cells ([2]; exposure >48 h)
NC1=C(Br)C(=O)c2ncccc2C1=O [NSC-105808, 6-amino-7-bromoquinoline-5,8-dione]	inhibited	2700	causes cell death
O=C1C(=O)c2cc([N+](=O)[O-])ccc2-c2ccccc21 [NSC-5195242, 2-nitrophenanthrene-9,10-dione]	inhibited	1000	
